{"source": "patent US8044036B2", "about": "(priority 2005, dated 2011)", "key": {"Septoria tritici": {"test_system": "Septoria tritici", "assay": "Septoria tritici test (in vitro)/microtitre plates", "assay_type": "cell-based", "settings": "application rate 0.3 ppm; 5 days incubation in PDB; 100% = no fungal growth"}, "Pyricularia oryzae": {"test_system": "Pyricularia oryzae", "assay_type": "cell-based", "settings": "application rate 3 ppm; 5 days incubation in PDB; 100% = no fungal growth"}}}
{"smiles": "OC(Cc1ccccc1Cl)(Cn1nc[nH]c1=S)C1(Cl)CC1", "note": "(racemic) [prothioconazole, 2-[(2RS)-2-(1-chlorocyclopropyl)-3-(2-chlorophenyl)-2-hydroxy-propyl]-2H-1,2,4-triazole-3(4H)thione]", "values": [{"measurement": "Efficacy in % found", "setting": "Septoria tritici", "result": 21, "unit": "%"}, {"measurement": "Efficacy in % found", "setting": "Pyricularia oryzae", "result": 23, "unit": "%"}]}
{"smiles": "C=CCNC(=O)c1c([Si](C)(C)C)sc(C)c1C", "note": "[silthiofam, N-alkyl-4,5-dimethyl-2-(trimethylsilyl)thiophene-3-carboxamide]", "values": [{"measurement": "Efficacy in % found", "setting": "Septoria tritici", "result": 10, "unit": "%"}, {"measurement": "Efficacy in % found", "setting": "Pyricularia oryzae", "result": 29, "unit": "%"}]}
